{"source": "paper PMC9629851", "about": "“Cardiac myosin filaments are directly regulated by calcium” (The Journal of General Physiology, 2022)", "key": {"[1]": {"target": "T1, Human β-cardiac myosin (2-hep and 25-hep HMM) (Homo sapiens, UniProt P12883)", "T1 construct": "gene MYH7", "T1 sequence (P12883 1-855)": "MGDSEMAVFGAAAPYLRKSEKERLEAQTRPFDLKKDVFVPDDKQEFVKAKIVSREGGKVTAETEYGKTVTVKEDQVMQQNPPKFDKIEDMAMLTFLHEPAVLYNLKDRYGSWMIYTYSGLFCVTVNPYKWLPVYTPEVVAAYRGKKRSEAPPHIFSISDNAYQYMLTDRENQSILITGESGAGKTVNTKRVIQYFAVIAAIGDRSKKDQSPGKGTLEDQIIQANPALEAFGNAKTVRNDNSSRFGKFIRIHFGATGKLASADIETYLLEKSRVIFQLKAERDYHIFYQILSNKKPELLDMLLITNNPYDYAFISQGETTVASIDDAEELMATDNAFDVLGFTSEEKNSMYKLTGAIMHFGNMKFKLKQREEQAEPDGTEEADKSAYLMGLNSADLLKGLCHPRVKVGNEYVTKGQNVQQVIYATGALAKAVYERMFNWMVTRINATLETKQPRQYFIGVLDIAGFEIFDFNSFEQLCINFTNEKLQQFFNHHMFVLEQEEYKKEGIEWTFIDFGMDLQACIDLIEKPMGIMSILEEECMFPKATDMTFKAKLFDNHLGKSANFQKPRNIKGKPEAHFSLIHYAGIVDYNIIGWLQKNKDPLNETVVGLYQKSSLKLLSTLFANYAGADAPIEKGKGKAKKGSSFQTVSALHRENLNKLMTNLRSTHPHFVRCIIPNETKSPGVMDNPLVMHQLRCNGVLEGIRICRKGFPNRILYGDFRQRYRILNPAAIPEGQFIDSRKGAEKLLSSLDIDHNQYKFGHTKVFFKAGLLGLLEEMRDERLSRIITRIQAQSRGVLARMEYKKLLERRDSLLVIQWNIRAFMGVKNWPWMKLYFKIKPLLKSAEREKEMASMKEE", "experiment": "basal ATPase assay of recombinant HMM", "assay_type": "biochemical"}, "[2]": {"target": "T2, β-cardiac full-length myosin (Bos taurus, UniProt Q9BE39)", "T2 construct": "gene MYH7; full-length myosin in synthetic thick filaments; also HMM and S1-subfragment", "T2 sequence (Q9BE39 whole entry, the tested form may be a part)": "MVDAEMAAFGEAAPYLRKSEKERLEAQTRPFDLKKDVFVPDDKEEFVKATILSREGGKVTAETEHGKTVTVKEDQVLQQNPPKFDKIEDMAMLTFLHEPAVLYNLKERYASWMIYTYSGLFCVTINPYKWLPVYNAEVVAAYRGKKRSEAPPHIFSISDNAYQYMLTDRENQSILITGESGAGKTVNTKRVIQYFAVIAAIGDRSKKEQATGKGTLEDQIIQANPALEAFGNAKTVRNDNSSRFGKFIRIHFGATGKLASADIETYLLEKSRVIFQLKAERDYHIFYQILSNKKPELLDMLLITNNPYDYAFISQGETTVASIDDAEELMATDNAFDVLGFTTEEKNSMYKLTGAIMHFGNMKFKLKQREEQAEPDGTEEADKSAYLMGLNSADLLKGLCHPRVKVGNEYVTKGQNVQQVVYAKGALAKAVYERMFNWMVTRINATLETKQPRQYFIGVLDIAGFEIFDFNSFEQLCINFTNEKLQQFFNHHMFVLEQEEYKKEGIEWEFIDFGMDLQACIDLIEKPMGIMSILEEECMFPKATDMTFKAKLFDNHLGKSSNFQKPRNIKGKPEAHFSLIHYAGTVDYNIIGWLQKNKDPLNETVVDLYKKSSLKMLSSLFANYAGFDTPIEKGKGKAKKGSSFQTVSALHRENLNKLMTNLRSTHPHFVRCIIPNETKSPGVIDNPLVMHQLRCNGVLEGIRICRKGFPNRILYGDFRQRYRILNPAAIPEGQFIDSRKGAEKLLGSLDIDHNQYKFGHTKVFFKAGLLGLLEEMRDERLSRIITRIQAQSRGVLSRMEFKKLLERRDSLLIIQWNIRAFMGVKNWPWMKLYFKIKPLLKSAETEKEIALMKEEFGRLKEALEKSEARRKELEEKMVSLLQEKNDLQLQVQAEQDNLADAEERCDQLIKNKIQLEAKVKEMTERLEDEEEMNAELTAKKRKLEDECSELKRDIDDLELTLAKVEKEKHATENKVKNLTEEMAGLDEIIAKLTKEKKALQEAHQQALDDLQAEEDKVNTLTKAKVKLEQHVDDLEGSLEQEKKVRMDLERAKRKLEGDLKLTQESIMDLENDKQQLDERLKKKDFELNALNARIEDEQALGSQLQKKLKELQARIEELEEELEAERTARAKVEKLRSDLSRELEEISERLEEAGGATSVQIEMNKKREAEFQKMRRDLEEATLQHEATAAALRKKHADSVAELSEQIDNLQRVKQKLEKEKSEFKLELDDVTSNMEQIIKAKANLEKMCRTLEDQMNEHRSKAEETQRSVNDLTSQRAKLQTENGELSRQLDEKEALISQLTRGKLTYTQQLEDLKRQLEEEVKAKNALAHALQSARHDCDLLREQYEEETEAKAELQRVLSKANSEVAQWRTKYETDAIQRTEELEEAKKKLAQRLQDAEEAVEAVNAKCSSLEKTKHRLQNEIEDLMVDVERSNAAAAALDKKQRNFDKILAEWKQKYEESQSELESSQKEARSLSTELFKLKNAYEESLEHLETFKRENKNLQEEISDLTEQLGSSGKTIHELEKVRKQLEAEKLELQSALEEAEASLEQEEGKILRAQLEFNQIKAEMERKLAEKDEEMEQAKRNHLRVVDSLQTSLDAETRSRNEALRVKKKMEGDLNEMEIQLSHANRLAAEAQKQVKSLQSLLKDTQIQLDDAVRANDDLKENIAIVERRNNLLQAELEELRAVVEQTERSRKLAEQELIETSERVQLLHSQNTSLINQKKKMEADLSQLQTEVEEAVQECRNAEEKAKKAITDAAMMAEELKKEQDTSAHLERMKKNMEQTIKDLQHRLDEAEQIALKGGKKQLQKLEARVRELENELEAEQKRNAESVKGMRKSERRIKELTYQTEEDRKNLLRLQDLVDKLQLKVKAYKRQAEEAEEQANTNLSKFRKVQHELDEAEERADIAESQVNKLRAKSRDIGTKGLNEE", "experiment": "basal ATPase, enzymatically coupled assay on purified myosin", "assay_type": "biochemical"}}, "data": [{"smiles": "Nc1ncnc2c1ncn2[C@@H]1O[C@H](COP(=O)(O)OP(=O)(O)OP(=O)(O)O)[C@@H](O)[C@H]1O", "note": "[ATP]", "values": [{"measurement": "Raw values at pCa 8", "setting": "[1]", "value": "0.1 ± 0.05", "unit": "s^−1"}, {"measurement": "Raw values at pCa 8", "setting": "[2]", "value": "0.03 ± 0.01", "unit": "s^−1"}]}]}
